Data from US7807439B2, “Staphylococcus aureus-specific detection media and identifying and/or counting method using same” (Biomerieux S.A., priority 2001, dated 2010).

What was measured:
S. aureus 7509008 = test: Experiment 7: effect of maltose on α-glucosidase activity, weak inocula; format: cell-based, Staphylococcus aureus; set-up: key: 0 corresponds to a lack of activity; 0.1 corresponds to the presence of a trace of coloration; 0.5 corresponds to the presence of a very pale coloration; 1 corresponds to the presence of a clear coloration of weak intensity; 1.5 corresponds to the presence of a coloration which is intermediate between colorations 1 and 2; 2 corresponds to the presence of a true coloration of medium intensity; 2.5 corresponds to the presence of a coloration which is intermediate between colorations 2 and 3; 3 corresponds to the presence of an intense coloration; 3.5 corresponds to the presence of a coloration which is intermediate between colorations 3 and 4; 4 corresponds to the presence of a very intense coloration; conditions: strain 1
Description: (§1) The maltose is solubilized in water at a concentration of, for example, 100 g/l, and then a sufficient volume to obtain the final concentrations above is added to the three molten media. The Staphylococcal strains derived from the bioMérieux internal collection were seeded onto each one of the chromogenic media on their own (closely spaced perpendicular streaks over the entire surface of the dish) using a suspension at 0.5 MacFarland diluted to 1/30000. The dishes were incubated at 37° C. for 48 hours. The colonies formed were examined visually after 18, 24 and 48 hours of incubation and the intensity of coloration of the colonies was marked. The coloration was noted and the intensity of these colorations was marked. The reading scale is the same as that used above for tables 2 and 4.

S. aureus 8311065 = test: as above; format: cell-based, Staphylococcus aureus; set-up: key: 0 corresponds to a lack of activity; 0.1 corresponds to the presence of a trace of coloration; 0.5 corresponds to the presence of a very pale coloration; 1 corresponds to the presence of a clear coloration of weak intensity; 1.5 corresponds to the presence of a coloration which is intermediate between colorations 1 and 2; 2 corresponds to the presence of a true coloration of medium intensity; 2.5 corresponds to the presence of a coloration which is intermediate between colorations 2 and 3; 3 corresponds to the presence of an intense coloration; 3.5 corresponds to the presence of a coloration which is intermediate between colorations 3 and 4; 4 corresponds to the presence of a very intense coloration; conditions: strain 3
Description: as §1

S. aureus 8507276 = test: as above; format: cell-based, Staphylococcus aureus; set-up: key: 0 corresponds to a lack of activity; 0.1 corresponds to the presence of a trace of coloration; 0.5 corresponds to the presence of a very pale coloration; 1 corresponds to the presence of a clear coloration of weak intensity; 1.5 corresponds to the presence of a coloration which is intermediate between colorations 1 and 2; 2 corresponds to the presence of a true coloration of medium intensity; 2.5 corresponds to the presence of a coloration which is intermediate between colorations 2 and 3; 3 corresponds to the presence of an intense coloration; 3.5 corresponds to the presence of a coloration which is intermediate between colorations 3 and 4; 4 corresponds to the presence of a very intense coloration; conditions: strain 2
Description: as §1

S. aureus 8507285 = test: as above; format: cell-based, Staphylococcus aureus; set-up: key: 0 corresponds to a lack of activity; 0.1 corresponds to the presence of a trace of coloration; 0.5 corresponds to the presence of a very pale coloration; 1 corresponds to the presence of a clear coloration of weak intensity; 1.5 corresponds to the presence of a coloration which is intermediate between colorations 1 and 2; 2 corresponds to the presence of a true coloration of medium intensity; 2.5 corresponds to the presence of a coloration which is intermediate between colorations 2 and 3; 3 corresponds to the presence of an intense coloration; 3.5 corresponds to the presence of a coloration which is intermediate between colorations 3 and 4; 4 corresponds to the presence of a very intense coloration; conditions: strain 4
Description: as §1

S. intermedius 8407075 = test: as above; format: cell-based, Staphylococcus intermedius; set-up: key: 0 corresponds to a lack of activity; 0.1 corresponds to the presence of a trace of coloration; 0.5 corresponds to the presence of a very pale coloration; 1 corresponds to the presence of a clear coloration of weak intensity; 1.5 corresponds to the presence of a coloration which is intermediate between colorations 1 and 2; 2 corresponds to the presence of a true coloration of medium intensity; 2.5 corresponds to the presence of a coloration which is intermediate between colorations 2 and 3; 3 corresponds to the presence of an intense coloration; 3.5 corresponds to the presence of a coloration which is intermediate between colorations 3 and 4; 4 corresponds to the presence of a very intense coloration; conditions: strain 6
Description: as §1

Staphylococcus aureus = test: Experiment 7: effect of maltose, summary; format: cell-based; conditions: in particular critical strains (3, 4, 5 and 6)
Description: as §1, with “marked.” for “marked. The coloration was noted and the intensity of these colorations was marked. The reading scale is the same as that used above for tables 2 and 4.”

OC[C@H]1O[C@H](O[C@H]2[C@H](O)[C@@H](O)C(O)O[C@@H]2CO)[C@H](O)[C@@H](O)[C@@H]1O (mixture of isomers) [Maltose, maltose]
Intensity of coloration of the colonies (S. aureus 7509008; 18 h, Maltose 100 mg/l): 1.3 | Intensity of coloration of the colonies (S. aureus 7509008; 18 h, Maltose 300 mg/l): 1.3 | Intensity of coloration of the colonies (S. aureus 7509008; 18 h, Maltose 400 mg/l): 1.7 | Intensity of coloration of the colonies (S. aureus 7509008; 24 h, Maltose 100 mg/l): 1.7 | Intensity of coloration of the colonies (S. aureus 7509008; 24 h, Maltose 300 mg/l): 1.7 | Intensity of coloration of the colonies (S. aureus 7509008; 24 h, Maltose 400 mg/l): 3 | Intensity of coloration of the colonies (S. aureus 7509008; >40 h, Maltose 100 mg/l): 2 | Intensity of coloration of the colonies (S. aureus 7509008; >40 h, Maltose 300 mg/l): 2 | Intensity of coloration of the colonies (S. aureus 7509008; >40 h, Maltose 400 mg/l): 2.7 | Intensity of coloration of the colonies (S. aureus 8311065; 18 h, Maltose 100 mg/l): 1.3 | Intensity of coloration of the colonies (S. aureus 8311065; 18 h, Maltose 300 mg/l): 1.3 | Intensity of coloration of the colonies (S. aureus 8311065; 18 h, Maltose 400 mg/l): 1.3 | Intensity of coloration of the colonies (S. aureus 8311065; 24 h, Maltose 100 mg/l): 1.7 | Intensity of coloration of the colonies (S. aureus 8311065; 24 h, Maltose 300 mg/l): 1.7 | Intensity of coloration of the colonies (S. aureus 8311065; 24 h, Maltose 400 mg/l): 2 | Intensity of coloration of the colonies (S. aureus 8311065; >40 h, Maltose 100 mg/l): 2.7 | Intensity of coloration of the colonies (S. aureus 8311065; >40 h, Maltose 300 mg/l): 2.7 | Intensity of coloration of the colonies (S. aureus 8311065; >40 h, Maltose 400 mg/l): 2.7 | Intensity of coloration of the colonies (S. aureus 8507276; 18 h, Maltose 100 mg/l): 2 | Intensity of coloration of the colonies (S. aureus 8507276; 18 h, Maltose 300 mg/l): 2 | Intensity of coloration of the colonies (S. aureus 8507276; 18 h, Maltose 400 mg/l): 2 | Intensity of coloration of the colonies (S. aureus 8507276; 24 h, Maltose 100 mg/l): 2.7 | Intensity of coloration of the colonies (S. aureus 8507276; 24 h, Maltose 300 mg/l): 2.7 | Intensity of coloration of the colonies (S. aureus 8507276; 24 h, Maltose 400 mg/l): 2.7 | Intensity of coloration of the colonies (S. aureus 8507276; >40 h, Maltose 100 mg/l): 3 | Intensity of coloration of the colonies (S. aureus 8507276; >40 h, Maltose 300 mg/l): 3 | Intensity of coloration of the colonies (S. aureus 8507276; >40 h, Maltose 400 mg/l): 3 | Intensity of coloration of the colonies (S. aureus 8507285; 18 h, Maltose 100 mg/l): 0 | Intensity of coloration of the colonies (S. aureus 8507285; 18 h, Maltose 300 mg/l): 0 | Intensity of coloration of the colonies (S. aureus 8507285; 18 h, Maltose 400 mg/l): 0 | Intensity of coloration of the colonies (S. aureus 8507285; 24 h, Maltose 100 mg/l): 0.3 | Intensity of coloration of the colonies (S. aureus 8507285; 24 h, Maltose 300 mg/l): 0.3 | Intensity of coloration of the colonies (S. aureus 8507285; 24 h, Maltose 400 mg/l): 0.3 | Intensity of coloration of the colonies (S. aureus 8507285; >40 h, Maltose 100 mg/l): 0.8 | Intensity of coloration of the colonies (S. aureus 8507285; >40 h, Maltose 300 mg/l): 1 | Intensity of coloration of the colonies (S. aureus 8507285; >40 h, Maltose 400 mg/l): 1.3 | Intensity of coloration of the colonies (S. intermedius 8407075; 18 h, Maltose 100 mg/l): 0.3 | Intensity of coloration of the colonies (S. intermedius 8407075; 18 h, Maltose 300 mg/l): 0.3 | Intensity of coloration of the colonies (S. intermedius 8407075; 18 h, Maltose 400 mg/l): 0.3 | Intensity of coloration of the colonies (S. intermedius 8407075; 24 h, Maltose 100 mg/l): 0.6 | Intensity of coloration of the colonies (S. intermedius 8407075; 24 h, Maltose 300 mg/l): 0.8 | Intensity of coloration of the colonies (S. intermedius 8407075; 24 h, Maltose 400 mg/l): 1 | Intensity of coloration of the colonies (S. intermedius 8407075; >40 h, Maltose 100 mg/l): 0.8 | Intensity of coloration of the colonies (S. intermedius 8407075; >40 h, Maltose 300 mg/l): 1 | Intensity of coloration of the colonies (S. intermedius 8407075; >40 h, Maltose 400 mg/l): 1.3 | effect on α-glucosidase expression (Staphylococcus aureus): activates the α-glucosidase expression
